{"source": "patent US12428405B2", "about": "“Chalcone-based chemotherapeutic compound for triple negative breast cancer” (QATAR UNIVERSITY, priority 2019, dated 2025)", "key": {"MDA-MB-468": {"test_system": "MDA-MB-468", "assay": "Soft agar colony formation assay", "assay_type": "cell-based", "details": "MDA-MB-468; soft agar"}, "MCF-7": {"test_system": "MCF-7", "assay": "Soft agar colony formation assay", "assay_type": "cell-based", "details": "MCF-7; soft agar"}, "[1]": {"test_system": "Epithelial Mesenchymal Transition (EMT) markers in MDA-MB-231 cells", "assay": "Western blot of EMT markers", "assay_type": "cell-based", "details": "cell line not named in the sentence (FIG. 3.24, FIG. 3.25)", "procedure": "Proteins were quantified with the Pierce BCA Protein Assay Kit (Thermo Scientific, USA) following cell lysis. SDS-PAGE was prepared at a concentration of 10% for all studied proteins. All samples were loaded at 40 μg per 1.5 mm 15 wells comb. Running of stained samples was performed using two steps gel electrophoresis (60 Volts for 20 minutes followed by 120 Volts for 1 hour). Afterwards, gels were transferred into PVDF membrane at 100 Voltage for 1.5-2.0 hours using wet transfer. Following transfer, PVDF membranes were blocked with 5% skimmed milk and washed three times. Primary antibodies (Table 2.2) were prepared, then PVDF membrane were incubated with them overnight with gentle shaking at 4° C. Afterwards, membranes were washed three times and incubated with their respective secondary antibodies for 1-2 hours with gentle shaking at room temperature. Pierce™ ECL Western Blotting Substrate was used to detect proteins by chemiluminescence. Blots were imaged using the ibrightCL1000 imaging system."}, "MDA-MB-231 [2]": {"test_system": "MDA-MB-231", "assay": "Migration (wound healing) assay", "assay_type": "cell-based", "details": "for activity at 5 µM: read-out: % migration; for IC50: 24 hours of treatment, 5 concentrations, two independent experiments, read-out: Migratory IC50 MDA-MB-231", "procedure": "MDA-MB-231 cells were seeded in 12-wells plates at a concentration of 500,000 cells/well and were incubated in complete RPMI culture medium until covering the well and reaching around 90-100% confluency. Following, cells were serum starved for 4 hours and a 200 μl pipette tip was used to create the scratch followed by cell washing with PBS twice. […] Microscopic pictures were then taken, and cell migration was quantified based on the wound diameter at 24 hours minus the initial diameter at time zero, as represented by the following equation: % Migration=[…]"}, "MDA-MB-231 [3]": {"test_system": "MDA-MB-231", "assay": "Soft agar colony formation assay", "assay_type": "cell-based", "details": "MDA-MB-231; soft agar"}, "MDA-MB-231 [4]": {"test_system": "MDA-MB-231", "assay": "Cell cycle analysis (flow cytometry)", "assay_type": "cell-based", "details": "10 μM, 48 hours post treatment; N=1", "procedure": "The MDA-MB-231, MDA-MB-468 and MCF-7 cell lines were seeded on 6-well plates at a concentration of 200,000 cells per well and were maintained in culture supplemented with 10% fetal bovine serum for 8-10 hours. The same day, media was removed and cells were incubated overnight with serum free media. Second day, cells were treated with the compounds. Adherent and floating cell populations were harvested at 48 hours after treatment with different concentrations of the compounds and counted.\nAfterward, cells were washed with cold PBS once, centrifuged at 4° C. and fixed with 1.5 ml cold 70% ethanol added drop wise while slowly vortexing. Samples were then stored at […] Following fixation, cells were pelleted and washed with ice-cold PBS. Equal aliquots were collected and resuspended in 300 μl of Tali® Cell Cycle Kit and incubated at 37 C. with slow shaking speed for 30 minutes in the dark. Accuri C6 flow cytometer (BD Biosciences, USA) was used to analyze the cells. The FlowJo V10 software was used to process and evaluate the results."}, "[5]": {"test_system": "Chorioallantoic membrane (CAM) of the chicken embryos", "assay": "Chorioallantoic membrane (CAM) angiogenesis assay", "assay_type": "in vivo", "details": "treated at embryonic day 4, read at day 8; 2 μl of 5 mM stock under coverslip", "procedure": "Fertilized white Leghorn chicken embryos (Arab Qatari for Poultry Production, Qatar) were purchased and incubated at 60% humidity at 37° C. in MultiQuip incubator. Ethics approval was obtained from Qatar University-Institutional Bio-safety committee. The embryos were treated in ovo at embryonic day 4 with three of the synthesized chalcones (5, 13 and 14) compared to DMSO treated controls. Briefly, a small cut was made at the top of the shells of the eggs and each treatment was added under a round coverslip at 2 μl of 5 mM stock solutions. Microscopic pictures were taken at embryonic day 8. Embryos treated with compounds 13 and 14 were sacrificed at embryonic day 9 for clinical observations. Quantification of blood vessels was performed manually and the different treatment groups were compared."}, "[6]": {"details": "Homo sapiens, MDA-MB-231, 5 μM, 24 hours post treatment, control = 100, Mean ± SEM (N = 2 × 2)"}}, "note": "Where two headings read alike, the source gives them in different places."}
{"compound": "COc1cc2c(c(OC)c1OC)-c1ccc(OC)c(=O)cc1[C@@H](NC(C)=O)CC2", "note": "[Colchicine, reference compound]", "values": [{"measurement": "colony formation (in words)", "setting": "MDA-MB-468", "result": "significantly inhibited the ability of cells to form colonies"}, {"measurement": "colony formation (in words)", "setting": "MCF-7", "result": "significantly inhibited the ability of cells to form colonies"}, {"measurement": "expression of β-catenin and its phosphorylated form", "setting": "[1]", "result": "upregulated phospho-3-catenin"}, {"measurement": "activity at 5 µM", "setting": "MDA-MB-231 [2]; Homo sapiens, MDA-MB-231, 24 h", "result": "47.45 ± 0.25", "unit": "%"}, {"measurement": "colony formation (in words)", "setting": "MDA-MB-231 [3]", "result": "significantly inhibited the ability of cells to form colonies"}]}
{"compound": "O=C(/C=C/c1ccc(N2CCCC2)cc1)c1cccc(Cl)c1", "note": "[Compound 1, (E)-1-(3-chlorophenyl)-3-(4-(pyrrolidin-1-yl)phenyl) prop-2-en-1-one]", "values": [{"measurement": "activity at 5 µM", "setting": "MDA-MB-231 [2]; [6]", "result": "74.7 ± 5.8", "unit": "%"}]}
{"compound": "CS(=O)(=O)c1ccc(C(=O)/C=C/c2ccc(N3CCCC3)cc2)cc1", "note": "[Compound 2, (E)-1-(4-(methylsulfonyl)phenyl)-3-(4-(pyrrolidin-1-yl)phenyl) prop-2-en-1-one]", "values": [{"measurement": "cell cycle shifts (in words)", "setting": "MDA-MB-231 [4]", "result": "slight S phase arrest"}, {"measurement": "activity at 5 µM", "setting": "MDA-MB-231 [2]; [6]", "result": "67.3 ± 53.9", "unit": "%"}]}
{"compound": "CS(=O)(=O)c1ccc(C(=O)/C=C/c2ccc(N3CCOCC3)cc2)cc1", "note": "[Compound 3, (E)-1-(4-(methylsulfonyl)phenyl)-3-(4-morpholinophenyl) prop-2-en-1-one]", "values": [{"measurement": "activity at 5 µM", "setting": "MDA-MB-231 [2]; [6]", "result": "65.7 ± 52.4", "unit": "%"}]}
{"compound": "CS(=O)(=O)c1ccc(C(=O)/C=C/c2ccc(N3CCCCC3)cc2)cc1", "note": "[Compound 4, (E)-1-(4-(methylsulfonyl)phenyl)-3-(4-(piperidin-1-yl)phenyl) prop-2-en-1-one]", "values": [{"measurement": "activity at 5 µM", "setting": "MDA-MB-231 [2]; [6]", "result": "70.7 ± 55.9", "unit": "%"}]}
{"compound": "CSc1ccc(C(=O)/C=C/c2ccc(N3CCOCC3)cc2)cc1", "note": "[Compound 5, (E)-1-(4-(methylthio)phenyl)-3-(4-morpholinophenyl) prop-2-en-1-one]", "values": [{"measurement": "cell cycle shifts (in words)", "setting": "MDA-MB-231 [4]", "result": "no major cell cycle shifts"}, {"measurement": "activity at 5 µM", "setting": "MDA-MB-231 [2]; [6]", "result": "64.3 ± 3.32", "unit": "%"}, {"measurement": "IC50", "setting": "MDA-MB-231 [2]; Homo sapiens, MDA-MB-231", "result": "6140 ± 620", "unit": "nM"}, {"measurement": "inhibition of blood vessels development vs control", "setting": "[5]", "result": "68.49±4.42", "unit": "%"}]}
{"compound": "CSc1ccc(C(=O)/C=C/c2ccc(N3CCCCC3)cc2)cc1", "note": "[Compound 6, (E)-1-(4-(methylthio)phenyl)-3-(4-(piperidin-1-yl)phenyl) prop-2-en-1-one]", "values": [{"measurement": "activity at 5 µM", "setting": "MDA-MB-231 [2]; [6]", "result": "69.5 ± 3.92", "unit": "%"}]}
{"compound": "CSc1ccc(C(=O)/C=C/c2ccc(N3CCCC3)cc2)cc1", "note": "[Compound 7, (E)-1-(4-(methylthio)phenyl)-3-(4-(pyrrolidin-1-yl)phenyl) prop-2-en-1-one]", "values": [{"measurement": "activity at 5 µM", "setting": "MDA-MB-231 [2]; [6]", "result": "71.8 ± 0.06", "unit": "%"}]}
{"compound": "COc1cccc(C(=O)/C=C/c2ccc(N3CCCC3)cc2)c1", "note": "[Compound 8, (E)-1-(3-methoxyphenyl)-3-(4-(pyrrolidin-1-yl)phenyl) prop-2-en-1-one]", "values": [{"measurement": "activity at 5 µM", "setting": "MDA-MB-231 [2]; [6]", "result": "48.7 ± 2.85", "unit": "%"}, {"measurement": "IC50", "setting": "MDA-MB-231 [2]; Homo sapiens, MDA-MB-231", "result": "3000 ± 460", "unit": "nM"}]}
{"compound": "COc1cccc(C(=O)/C=C/c2ccc(N3CCCCC3)cc2)c1", "note": "[Compound 9, (E)-1-(3-methoxyphenyl)-3-(4-(piperidin-1-yl)phenyl)prop-2-en-1-one]", "values": [{"measurement": "cell cycle shifts (in words)", "setting": "MDA-MB-231 [4]", "result": "no major cell cycle shifts"}, {"measurement": "activity at 5 µM", "setting": "MDA-MB-231 [2]; [6]", "result": "75 ± 0.86", "unit": "%"}]}
{"compound": "O=C(/C=C/c1ccc(N2CCCC2)cc1)c1ccc2c(c1)OCO2", "note": "[Compound 10, (E)-1-(benzo[d][1,3]dioxol-5-yl)-3-(4-(pyrrolidin-1-yl)phenyl)prop-2-en-1-one]", "values": [{"measurement": "activity at 5 µM", "setting": "MDA-MB-231 [2]; [6]", "result": "53.5 ± 5.98", "unit": "%"}, {"measurement": "IC50", "setting": "MDA-MB-231 [2]; Homo sapiens, MDA-MB-231", "result": "4800 ± 720", "unit": "nM"}]}
{"compound": "O=C(/C=C/c1ccc(N2CCOCC2)cc1)c1ccc(N2CCNCC2)cc1", "note": "[Compound 11, (E)-3-(4-morpholinophenyl)-1-(4-(piperazin-1-yl)phenyl) prop-2-en-1-one]", "values": [{"measurement": "activity at 5 µM", "setting": "MDA-MB-231 [2]; [6]", "result": "75.1 ± 0.86", "unit": "%"}]}
{"compound": "COc1ccccc1C(=O)/C=C/c1ccc(N(CCCl)CCCl)cc1", "note": "[Compound 12, (E)-3-(4-(Bis(2-chloroethyl)amino)phenyl)-1-(2-methoxyphenyl) prop-2-en-1-one]", "values": [{"measurement": "IC50", "setting": "MDA-MB-231 [2]", "result": "1990 ± 190", "unit": "nM"}, {"measurement": "IC50", "setting": "MDA-MB-231 [2]; Homo sapiens, MDA-MB-231, 24 h", "result": "2000 ± 188", "unit": "nM"}, {"measurement": "activity at 5 µM", "setting": "MDA-MB-231 [2]; [6]", "result": "32.8 ± 0.68", "unit": "%"}]}
{"compound": "CC(=O)O[C@H]1C(=O)[C@@]2(C)[C@H]([C@H](OC(=O)c3ccccc3)[C@]3(O)C[C@H](OC(=O)[C@H](O)[C@@H](NC(=O)c4ccccc4)c4ccccc4)C(C)=C1C3(C)C)[C@]1(OC(C)=O)CO[C@@H]1C[C@@H]2O", "note": "[Paclitaxel, reference compound]", "values": [{"measurement": "colony formation (in words)", "setting": "MDA-MB-468", "result": "significantly inhibited the ability of cells to form colonies"}, {"measurement": "colony formation (in words)", "setting": "MCF-7", "result": "significantly inhibited the ability of cells to form colonies"}, {"measurement": "activity at 5 µM", "setting": "MDA-MB-231 [2]; [6]", "result": "39.3 ± 5.16", "unit": "%"}, {"measurement": "IC50", "setting": "MDA-MB-231 [2]; Homo sapiens, MDA-MB-231", "result": "2010 ± 220", "unit": "nM"}, {"measurement": "colony formation (in words)", "setting": "MDA-MB-231 [3]", "result": "significantly inhibited the ability of cells to form colonies"}]}
